The values that follow are results of earlier work, collected in publication PMC3736096 (Nature, 2013).

`COc1ccc(S(=O)(=O)Nc2nc(-c3cccc([N+](=O)[O-])c3)c(CN3CCCCC3)s2)cc1OC` [JM6]: the blood-brain barrier penetration result is given as “do not appreciably penetrate the blood-brain barrier”.

For the compound `COc1ccc(S(=O)(=O)Nc2nc(-c3cccc([N+](=O)[O-])c3)cs2)cc1OC` [Ro 61-8048, 3,4-dimethoxy-[-N-4-(nitrophenyl)thiazol-2yl]-benzenesulfonamide], the blood-brain barrier penetration entry is listed as “do not appreciably penetrate the blood-brain barrier”.
